Like-named read-outs stand apart in the source and are kept apart here.
How the values were obtained:
ACE2 = details: read-out: half maximum inhibitory concentration (IC50); cited from earlier work
[1] = target: T1, recombinant human ACE2 (rhACE2) (Homo sapiens, UniProt Q9BYF1); assay: MLN-4760 inhibition of rhACE2 metabolism of angiotensin peptides; format: biochemical
[2] = target: T1, recombinant human ACE2 (rhACE2); assay: Zinc inhibition of rhACE2 metabolism of Ang II to Ang 1–7; format: biochemical
[3] = target: T1, recombinant human ACE2 (rhACE2); details: pH 7.0
[4] = system: Human neutrophil collagenase (matrix metalloproteinase 8, MMP8); details: 10 mM zinc; activity increases up to 100 μM zinc; cited from earlier work
[5] = system: CC[C@H](C)[C@H](NC(=O)[C@H](Cc1ccc(O)cc1)NC(=O)[C@@H](NC(=O)[C@H](CCCNC(=N)N)NC(=O)[C@@H](N)CC(=O)O)C(C)C)C(=O)N[C@@H](Cc1cnc[nH]1)C(=O)N1CCC[C@H]1C(=O)N[C@@H](Cc1ccccc1)C(=O)O; format: biochemical, human; details: other: average of the two series (Tables 2 and 3), Ang II to Ang 1–7

T1 sequence (Q9BYF1 18-740 limits assumed): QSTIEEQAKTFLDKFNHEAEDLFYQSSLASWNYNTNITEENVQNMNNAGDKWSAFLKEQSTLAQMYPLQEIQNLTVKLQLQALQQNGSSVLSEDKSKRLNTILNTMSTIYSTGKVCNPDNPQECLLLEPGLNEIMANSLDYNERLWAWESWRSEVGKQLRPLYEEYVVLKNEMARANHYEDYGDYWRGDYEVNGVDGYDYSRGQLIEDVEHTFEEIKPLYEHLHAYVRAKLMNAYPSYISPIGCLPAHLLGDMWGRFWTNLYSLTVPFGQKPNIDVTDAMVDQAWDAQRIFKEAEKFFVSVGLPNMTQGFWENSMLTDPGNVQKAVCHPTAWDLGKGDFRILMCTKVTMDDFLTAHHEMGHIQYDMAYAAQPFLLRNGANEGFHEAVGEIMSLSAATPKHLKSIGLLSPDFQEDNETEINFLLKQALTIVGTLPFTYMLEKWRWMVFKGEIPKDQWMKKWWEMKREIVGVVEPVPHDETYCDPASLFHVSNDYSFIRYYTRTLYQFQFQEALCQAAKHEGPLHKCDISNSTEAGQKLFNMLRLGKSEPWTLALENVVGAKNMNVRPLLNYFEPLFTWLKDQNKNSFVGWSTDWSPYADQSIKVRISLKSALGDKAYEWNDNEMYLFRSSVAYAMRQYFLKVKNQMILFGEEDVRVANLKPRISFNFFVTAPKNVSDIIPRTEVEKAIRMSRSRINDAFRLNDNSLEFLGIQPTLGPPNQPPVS

Molecule: CC(C)C[C@H](N[C@@H](Cc1cncn1Cc1cc(Cl)cc(Cl)c1)C(=O)O)C(=O)O [MLN-4760]
- IC50 (ACE2): 0.0004 µM
- inhibition of metabolism of Ang II to Ang 1–7 ([1]; 1 μM MLN-4760): nearly all
- inhibition at 1 µM ([1]; read-out: inhibition of rhACE2 activity): ~90%

Molecule: CC(=O)[O-].CC(=O)[O-].[Zn+2] [zinc, zinc acetate]
- inhibition of ACE2 activity ([2]; 1 mM zinc): completely
- IC50 ([2]; read-out: IC50 for inhibition of rhACE2 metabolism of Ang II to Ang 1–7, zinc 1 to 1000 μM, 100 μM Ang II, rhACE2 48.4 ng/ml (569 pM), 50 mM Hepes, 100 mM NaCl, pH 7.0, 30 min, 37°C, mean ± SEM, n=2): 69.1 ± 1.1 µM
- Log IC50 for inhibition of rhACE2 metabolism of Mca-APK(dnp) ([3]; HEPES buffer): −3.77
- Log IC50 for inhibition of rhACE2 metabolism of Mca-APK(dnp) ([3]; MES buffer): −3.85
- Log IC50 for inhibition of rhACE2 metabolism of Mca-APK(dnp) ([3]; Tris buffer): −3.82
- collagenase activity remaining [4]: ~ 20%

Molecule: recombinant human ACE2 (rhACE2) (Homo sapiens)
- Km [5]: 8.47 µM
- kcat/Km [5]: 1.02 μM^−1,sec^−1

— article PMC7887068 (Peptides, 2021)
